# Columns and labels:
# [1] = Thermal stability test (storage at 40° C./75% RH for 8 weeks; HPLC content, visual discoloration, XRD); format: physicochemical; conditions: for L-serine content from 0 week: before storage at 40° C./75% RH; for L-serine content from 0 week / L-serine content after 8 weeks: HPLC; for L-serine content after 8 weeks / Change in Crystal / Discoloration: after 8 weeks at 40° C./75% RH; for Change in Crystal: XRD; for Discoloration: visual
# Procedure: After 8 weeks, each sample was taken out and the content was analyzed using high-performance liquid chromatography (HPLC), and the presence of discoloration was visually confirmed as shown in FIG. 13. High-Performance Liquid Chromatography Conditions • Equipment: Waters Alliance e2695 • Column: […] 100, 150 mm×4.6 mm×5 μm • Column temperature: 30° C. • Flow rate: 1.0 mL/min • Detection: 210 nm, UV • Injection volume: 10 μL • Total analysis time: 40 mins • Mobile phase: […]
# [2] = Hygroscopicity test by dynamic vapor absorption (DVS); conditions: 25° C., 2-98% relative humidity
# [3] = Pharmacokinetic comparison after single oral administration; conditions: 400 mg/kg oral once
# [4] = Saturated solubility in purified water; format: physicochemical; conditions: on first addition of purified water
# Procedure: Then, 5 mL (or 10 mL) of this solution is taken, and placed into a 50 mL volumetric flask, purified water is filled to the mark and used as a test solution. • f. The test solution is analyzed according to HPLC operating conditions for the test of L-serine content.
# b. The resulting solution is left at room temperature for 5 minutes and then vigorously mixed using a vortexer for 30 seconds.
# c. The process b is repeated 6 times (about 30 minutes) and then the resultant is left at room temperature until the floating materials are settled.
# d. The supernatant of the solution is placed into a 2.0 mL eppendorf tube and is subject to perform centrifugation using a centrifuge at 23° C. and 4,000 rpm for 20 minutes.
# e. 1 mL of the supernatant of the solution is taken and placed into a 100 mL volumetric flask, and purified water is filled to the mark. Then, 5 mL (or 10 mL) of this solution is taken and placed into a 50 mL volumetric flask, purified water is filled to the mark, and used as a test solution.
# f. The test solution is analyzed according to HPLC operating conditions for the test of L-serine content.
# [5] = mice, n=5, after baseline correction, 400 mg/kg
Structure (SMILES),L-serine content from 0 week [1] [% →],L-serine content after 8 weeks [1] [%],Change in Crystal [1],Discoloration [1],relative humidity at which moisture absorption started [2],"AUC0-12 [3, 5] [µg·h/mL]","AUC0-inf [3, 5] [µg·h/mL]","CI/F [3, 5]","Cmax ([3]; mouse, blood, po, 400 mg/kg, Cmax, mice, n=5, after baseline correction) [µg/mL]","MRT inf ([3]; mouse, blood, po, 400 mg/kg, MRT0-inf, mice, n=5, after baseline correction) [h]","Tmax ([3]; mouse, blood, po, 400 mg/kg, Tmax, mice, n=5, after baseline correction) [h]","half-life ([3]; mouse, blood, po, 400 mg/kg, t1/2, mice, n=5, after baseline correction) [h]","Cmax [3, 5] [µg/mL]","MRT0-inf [3, 5] [h]","Tmax [3, 5] [h]","t1/2 [3, 5] [h]",Remark (hardening phenomenon during dissolution) [4],difference in maximum blood concentration (Cmax) compared to amorphous form and type A crystalline form ([3]; mice),increase of AUC0-12 compared to amorphous form and type A crystalline form of L-serine ([3]; mice) [times]
"N[C@@H](CO)C(=O)O [Comparative Example 1, L-serine]",99.0,90.4,change in part,change to off-,40%,100.53 ± 20.15,121.45 ± 17.20,3.35 ± 0.43 (mg/kg)/(μg/mL)/h,67.5 ± 25.9,5.11 ± 0.8,0.25,4.15 ± 0.99,,,,,,,
"N[C@@H](CO)C(=O)O [Comparative Example 2, L-serine]",99.1,93.7,retained,change to off-,around 70%,165.81 ± 40.99,177.36 ± 39.9,3.19 ± 0.67 (mg/kg)/(μg/mL)/h,,,,,77.69 ± 8.49,3.44 ± 1.49,0.50,2.56 ± 0.76,,,
"N[C@@H](CO)C(=O)O [Example 3, L-serine]",99.3,99.2,retained,no change,around 80%,248.89 ± 37.34,296.22 ± 69.63,2.11 ± 0.49 (mg/kg)/(μg/mL)/h,,,,,75.48 ± 10.70,5.29 ± 2.10,0.50,3.56 ± 1.36,The procedure went smoothly,no significant difference,≥ 2
